Measured values taken from patent US10111427B2, “Formulation for improving the yield and quality of fiber in cotton plants” (Council of Scientific & Industrial Research, priority 2015, dated 2018).

Tests used:
cultured cotton ovules [1] = test: In-vitro cotton ovule culture assay, phenotypic observation of fiber growth; assay type: cell-based; conditions: tested 1-NAA 1, 5, 10, 20 μM; GA3 0.1, 0.5, 1, 5 μM; Anacardic acid 2, 4, 8, 10 μM; 32° C.
Source text: In the present invention, Anacardic acid may be dissolved in solvents selected from Dimethyl Sulfoxide (DMSO), Dimethyl formamide (DMFO), ethanol methanol, dichloromethane, ether, petroleum ether and ethyl acetate in a suitable concentration and mixed with 1Naphthaleneacetic Acid (1-NAA) and Gibberellic acid (GA3). For standardization of appropriate concentrations of phytohormones and Anacardic acid for better yield and quality of fiber, the formulation and its components were first tested on cultured ovules. Different concentrations of 1-NAA (1, 5, 10 and 20 μM) and GA3 (0.1, 0.5, 1 and 5 μM) were tested in ovule culture media and established that fiber growth was better at 5 μM 1-NAA and 0.5 μM GA3. Similarly, different concentrations of Anacardic acid (2, 4, 8 and 10 μM) were also used and established that fiber growth was better at 8 μM Anacardic acid in media in comparison to other concentrations.
Formulation was diluted with modified ½ MSL (Murasighe Skoog Liquid) media having 2% sucrose for a final concentration of Anacardic acid to 8 μM, 1-NAA to 5 μM and GA3 to 0.5 μM. This formulation was then used to culture cotton, ovules excised at −3 DPA (Day Post Anthesis) to study its effect on fiber initiation and at 0 DPA for fiber elongation. Ovules were examined (at 3 DPA for initiation and at 12 DPA for elongation stage) and photographed (Example 1). […] Cotton ovules cultured with the formulation (1-NAA+GA3+ Anacardic acid) in culture media show higher number of initiating fibers and better growth in comparison to control ovules (only phytohormones treated).
For standardization of appropriate concentrations of phytohormones and Anacardic acid for better yield and quality of fiber, the formulation and its components were first tested on cultured ovules. […]
Finally, in-vitro ovule culture experiment was performed with 8 μM Anacardic acid, 5 μM 1-NAA and 0.5 μM GA3 in media along with control sample having only 5 μM 1-NAA and 0.5 μM GA3. The phenotypic observations were recorded at 3 DPA for initiation stage and at 12 DPA for elongation stage (FIG. 1).

cultured cotton ovules [2] = test: Ovule culture with different phytohormones with and without Anacardic acid; assay type: cell-based; conditions: 12 DPA; for growth in cultures having Anacardic acid with phytohormone: Anacardic acid added at 3 DPA, in comparison to control where only phytohormones were used; for Lignin content of ovules cultured with Anacardic acid and phytohormone: toluidine blue, in comparison to control wherein only phytohormones are used
Description: To check the effect of the phytohormones on fiber development for better yield and quality of fibers, different phytohormones and their combinations were tested first tested on cultured ovules. Cotton buds and flowers at 1 DPA stage were plucked from the plants for the ovule culture. Ovaries were surface sterilized using 1% Mercuric chloride solution and washed three times with MQ water. Ovules were excised using sterilized fine forceps and brushes. Isolted ovules (3-5) were transferred to culture media with different 5 μM of 1-Naphthaleneacetic acid (1NAA), Indole-3-acetic acid (IAA), 2,4-Dichlorophenoxyacetic acid (2,4-D), Kinetin, Zeatin and 0.5 μM Gibberellic acid (GA3)along with untreated ovules (having no phytohormones) placed in 35mm tissue culture dishes in two sets. All the dishes were further places in incubators set at 32° C. In one set of dishes, Anacardic acid was added to 3 DPA stage, while the other set was used to control. It has been observed that at 12 DPA stage growth in cultures having Anacardic acid with phytohormones like 1-NAA, IAA, 2,4-D and GA3 at […] was better in comparison to the control conditions, where only phytohormones were used (FIG. 8). […] For the lignin qualification, ovules were boiled in distilled water with a drop of concentrated HCl to dissolve waxes and leave the fibers hydrophilic. After rinsing in distilled water, three ovules per sample were places in a 50 ml falcon tube and stained with 30 ml. of toluidine blue solution (0.018% toluidine blue, 0.016 M Na2HPO4, 0.01 M citric acid, pH 4.5) for 30 s. After staining, the ovules were rinsed thoroughly with distilled water and briefly laid on absorbent paper to remove excess water. Ovules were then returned to 50 ml falcon tubes and 50 ml of destaining solution comprising glacial acetic acid, ethanol and water (10:95:5) added. After vigorous shaking and destaining for at least 1 h, 200μl of the solution was pipetted in triplicate into 96-well flat bottom microtiter plates for measurement of absorbance at 624 nm in a plate reader.

SMILES: O=C(O)Cc1cccc2ccccc12 [1-NAA, 1-Naphthaleneacetic acid]
- concentration at which fiber growth in ovule culture was better (cultured cotton ovules [1]): 5 µM
- growth in cultures having Anacardic acid with phytohormone (cultured cotton ovules [2]): better
- Lignin content of ovules cultured with Anacardic acid and phytohormone (cultured cotton ovules [2]): higher

SMILES: O=C(O)COc1ccc(Cl)cc1Cl [2,4-D, 2,4-Dichlorophenoxyacetic acid]
- growth in cultures having Anacardic acid with phytohormone (cultured cotton ovules [2]): better
- Lignin content of ovules cultured with Anacardic acid and phytohormone (cultured cotton ovules [2]): higher

SMILES: CCCCCCCCCCCCCCCc1cccc(O)c1C(=O)O [Anacardic acid]
- concentration at which fiber growth in ovule culture was better (cultured cotton ovules [1]): 8 µM

SMILES: C=C1C[C@]23C[C@@]1(O)CC[C@H]2[C@@]12C=C[C@H](O)[C@@](C)(C(=O)O1)[C@H]2[C@@H]3C(=O)O [GA3, Gibberellic acid]
- concentration at which fiber growth in ovule culture was better (cultured cotton ovules [1]): 0.5 µM
- growth in cultures having Anacardic acid with phytohormone (cultured cotton ovules [2]): better
- Lignin content of ovules cultured with Anacardic acid and phytohormone (cultured cotton ovules [2]): higher

SMILES: O=C(O)Cc1c[nH]c2ccccc12 [IAA, Indole-3-acetic acid]
- growth in cultures having Anacardic acid with phytohormone (cultured cotton ovules [2]): better
- Lignin content of ovules cultured with Anacardic acid and phytohormone (cultured cotton ovules [2]): higher
